Biological target: T1, hCX3CR1 (Homo sapiens, UniProt P49238)
T1 construct: expressed in transfected cells; host or cells: HEKS 293 (human embryonic kidney suspension) cells stably expressing chimeric G-protein Gαqi5
T1 sequence (P49238 1-355): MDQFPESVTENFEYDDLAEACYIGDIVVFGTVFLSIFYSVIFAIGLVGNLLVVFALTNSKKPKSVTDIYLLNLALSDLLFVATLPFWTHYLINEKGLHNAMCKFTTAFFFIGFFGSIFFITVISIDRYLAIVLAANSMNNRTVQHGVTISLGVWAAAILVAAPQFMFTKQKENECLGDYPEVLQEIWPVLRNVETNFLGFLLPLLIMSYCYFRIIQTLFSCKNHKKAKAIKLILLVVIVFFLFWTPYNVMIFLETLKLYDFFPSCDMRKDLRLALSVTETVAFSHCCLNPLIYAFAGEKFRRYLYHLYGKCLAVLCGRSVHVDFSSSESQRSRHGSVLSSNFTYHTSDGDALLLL
Test: in vitro hCX3CR1 binding assay ([125I]-fractalkine competition binding, membranes)
Details: competition with 10 pM [125I]-fractalkine, membranes of HEKS 293 cells expressing hCX3CR1, 25° C., 24 h
Protocol: The complete human CX3CR1 cDNA (GenBank accession number U20350) was extracted from human brain mRNA (Superscript, Life Technologies) and ligated into pCR-Blunt II TOPO vector (InVitrogen). The insert corresponding hCX3CR1 was isolated and further subcloned into pcDNA3.1zeo. Plasmid DNA was prepared using Plasmid Midi Kit (Qiagen). Using Superfect Transfection Reagent (Qiagen) according to the manufacturer's protocol the expression plasmid for hCX3CR1 was then introduced into human embryonic kidney suspension (HEKS) 293 cell line containing a vector for stable expression of a chimeric G-protein Gαqi5. A stable clone was generated utilizing zeocin (500 μg/mL) and hygromycin (100 μg/mL) selection. For further applications the cells were maintained in Dulbecco's modified Eagle's medium/Ham's nutrient mix F12 (DMEM/F12) containing pyridoxine and supplemented with 10% (v/v) fetal bovine serum, 2 mM L-glutamine, 100 U/ml penicillin and […] streptomycin, 250 μg/mL zeocin and 100 μg/mL hygromycin.
Cells are grown at 37° C. and 5% CO2 and harvested at 60-80% confluence in buffer containing 10 mM Tris-HCl pH 7.4, 5 mM EDTA, 0.1 mg/mL bacitracin. The cells are centrifuged at 300×g for 10 min and the pellet is resuspended in harvesting buffer (10 mM Tris-HCl, pH 7.4, 5 mM ethylenediaminetetra-aceticacid (EDTA) and 0.1 mg/mL bacitracin), pooled and homogenised using a Dounce homogeniser. The homogenate is centrifuged in 48000×g for 10 min and resuspended in harvesting buffer using Ultra-Turrax T8. Membrane aliquots are stored at −80° C. Protein concentration was determined in microtiter plates as described by Harrington (1990, Anal. Biochem. 186, 285-287).
Competition binding studies of [^125I]fraktalkine were performed in 2 mL 96-deep-well plates (Beckman, Germany) in a total volume of 1000 μL/well. Each well contained 10 pM [^125I]-fractalkine and membrane equivalent to receptor concentration of 1 pM in assay buffer (50 mM Hepes-KOH, pH 7.4, 10 mM MgCl2, 1 mM EDTA, 0.1% (w/v) gelatine). Ten concentrations (2 points/log unit) of the test compounds were pre-dissolved in DMSO and added to reach a final concentration of 1% (v/v) DMSO. The assay was initiated with the addition of membranes and incubated at 25° C. for 24 h. The reactions were stopped by rapid filtration through Whatman GF/B glass fiber filters pretreated with 0.3% polyethylimine and subsequent washing with ice-cold buffer (10 mM Hepes-KOH pH 7.4, 500 mM NaCl) using a Brandel receptor binding harvester. Scintillation cocktail was added and radioactivity was determined in a Packard 2500TR liquid scintillation counter. (Perkin Elmer, USA)

SMILES	Ki [nM]
CC(C)C[C@H](CO)Nc1nc(SC(C)c2ccc(F)cn2)nc2nc(N)sc12 (mixture of isomers) [Example 1, (2R)-2-[(2-Amino-5-{[1-(5-fluoropyridin-2-yl)ethyl]thio}[1,3]thiazolo[4,5-d]pyrimidin-7-yl)amino]-4-methylpentan-1-ol]	21
CC(C)C[C@H](CO)Nc1nc(S[C@@H](C)c2ccc(F)cn2)nc2nc(N)sc12 (single isomer, unassigned) [Example 3]	6.5
CC(C)C[C@H](CO)Nc1nc(S[C@@H](C)c2ccc(Cl)cn2)nc2nc(N)sc12 [Example 2, (2R)-2-[(2-Amino-5-{[(1S)-1-(5-chloropyridin-2-yl)ethyl]thio}[1,3]thiazolo[4,5-d]pyrimidin-7-yl)amino]-4-methylpentan-1-ol]	6.2
CC(C)C[C@H](CO)Nc1nc(S[C@@H](C)c2ncccc2F)nc2nc(N)sc12 [Example 5, (2R)-2-[(2-Amino-5-{[(1S)-1-(3-fluoropyridin-2-yl)ethyl]thio}[1,3]thiazolo[4,5-d]pyrimidin-7-yl)amino]-4-methylpentan-1-ol]	23
CCC[C@H](CO)N(C)c1nc(S[C@@H](C)c2ccc(Cl)nc2)nc2nc(N)sc12 [Example 6, (2R)-2-[(2-amino-5-{[(1S)-1-(6-chloropyridin-3-yl)ethyl]thio}[1,3]thiazolo[4,5-d]pyrimidin-7-yl)(methyl)amino]pentan-1-ol]	203
CCC[C@H](CO)Nc1nc(S[C@@H](C)c2ccc(Cl)nc2)nc2nc(N)sc12 [Example 7, (2R)-2-[(2-Amino-5-{[(1S)-1-(6-chloropyridin-3-yl)ethyl]thio}[1,3]thiazolo[4,5-d]pyrimidin-7-yl)amino]pentan-1-ol]	149
CC(C)C[C@H](CO)Nc1nc(S[C@@H](C)c2cc(C#N)ccn2)nc2nc(N)sc12 [Example 8, 2-{(1S)-1-[(2-Amino-7-{[(1R)-1-(hydroxymethyl)-3-methylbutyl]amino}[1,3]thiazolo[4,5-d]pyrimidin-5-yl)thio]ethyl}isonicotinonitrile]	81
CC(C)C[C@H](CO)Nc1nc(S[C@@H](C)c2ccncc2Cl)nc2nc(N)sc12 [Example 9b, (2R)-2-[(2-amino-5-{[(1S)-1-(3-chloropyridin-4-yl)ethyl]thio}[1,3]thiazolo[4,5-d]pyrimidin-7-yl)amino]-4-methylpentan-1-ol]	35

Source: patent US8158785B2, “5,7-disubstituted[1.3]thiazolo [4,5-D] pyrimidin-2(3H)-amine derivatives and their use in therapy” (AstraZeneca AB, priority 2006, dated 2012)
